# Reference: publication PMC4512978, “Synthesis and evaluation in rats of homologous series of [^18F]-labeled dopamine D2/3 receptor agonists based on the 2-aminomethylchroman scaffold as potential PET tracers” (EJNMMI Research, 2015)
# Columns and labels:
# D2/3R [1] = conditions: cited from earlier work; for displacement of apparent D2/3R-specific striatal uptake: Sprague-Dawley rats, 1–2 mg/kg (2.9–5.8 μmol/kg) raclopride
# D2/3R [2] = assay: In vitro autoradiography of rat brain slices; assay type: binding, Sprague-Dawley rats; conditions: for Striatal SBR % change relative to control condition, Raclopride / Striatal SBR, Raclopride: with 10 μM raclopride; for Striatal SBR % change relative to control condition, GTP / Striatal SBR, GTP: with 100 μM GTP
# Protocol: In vitro autoradiography assay was performed as previously described. Frozen brains of young (10–12 weeks of age; 300–350 g body weight) male Sprague-Dawley rats (Harlan, Netherlands) were cut at −12 °C into sagittal slices 20 μm thick using a Leica microtome, and the slices were thaw-mounted on Superfrost (70 × 22 mm, Fischer) adhesive slides. Only slices containing both striatal and cerebellar regions were used. The slides with slices mounted them were allowed to dry, then put into storage boxes with silica gel bags and stored at −80 °C.
# On the day of the experiment (within 1 week from the preparation of the slices), the slides were taken out of storage and allowed to come to room temperature for 5–10 min. Then, 1–1.2 mL of incubation buffer (50 mM Tris-HCl, 5 mM KCl, 2 mM CaCl2, 2 mM MgCl2, 120 mM NaCl, pH 7.4 25 °C) was applied per slide, and the slides were pre-incubated for 15 min at room temperature. The buffer was then removed, and the slides were placed into staining jars containing radioligand solution (concentration range of 0.1–10 nM) in the incubation buffer with or without 10 μM raclopride (D2/3 antagonist) or 100 μM guanosine-5'-triphosphate sodium salt (GTP, stimulator of G-protein uncoupling from the receptors). After 35 min of incubation at 37 °C, slides were washed once with ice-cold incubation buffer (3.5 min) and dipped for 30 s into ice-cold distilled water to remove buffer salts.
# After drying the slides in a stream of room-temperature air, they were exposed on phosphor storage screens for 6–10 h. The storage screens were read by Cyclone Storage Phosphor System (Packard Instruments Co.). Quantification of plate readings was done with OptiQuant software (version 3.00, Packard Instruments Co.).
# (§1) Degree of D2/3R-specific binding of the tracers was characterized by BPND (as given above) or the specific binding ratio (SBR) given as target region activity/cerebellar activity - 1. Both were calculated under control conditions and in response to the raclopride challenge.
# [3] = LogD measurement (n-octanol/phosphate buffer); assay type: physicochemical; conditions: n-octanol / 1 M phosphate buffer pH 7.4
# Protocol: LogD of the tracers was measured using the radioactivity remaining on the HLB SPE cartridges after their elution with ethanol during the tracer formulation procedure (see above). The cartridge was dried with nitrogen for 5 min and eluted with at least 1.5 mL n-octanol. A 500 μL portion of octanol eluate was mixed with 500 μL of 1 M phosphate buffer (pH 7.4) and vigorously vortexed for 5 min. The mixture was then centrifuged at 17,000g for 10 min and 3 × 100 μL aliquots of organic and aqueous phase were loaded into a gamma-counter for radioactivity measurement. To correct for possible presence of radioactive impurities in the tracer, aliquots of organic and aqueous phases were later analyzed by radio-TLC, and the counts obtained from the gamma-counter were corrected according to the percentage of impurities found in aqueous and organic phases. LogD was calculated with the following formula: LogD=lgCPMorg×Xorgtracer/CPMaq×Xaqtracer,
# where CPMorg is the mean radioactivity of the organic aliquots, Xorgtracer is the mean percentage of radioactivity accounting for intact tracer in organic aliquots (as determined from radio-TLC), and CPMaq and Xaqtracer are the corresponding values for the aqueous phase.
# For each tracer batch used for logD determination, the experiment was performed in duplicate. LogD values are means calculated from at least two independent experiments.
# D2/3R [4] = assay: Kinetic analysis of PET data (1TCM, 2TCM, Logan, SRTM); assay type: in vivo, Sprague-Dawley rats; conditions: 1 mg/kg raclopride, measured with [^18F]FEt-AMC13
# Protocol: Kinetic analysis is described using the nomenclature proposed by Innis et al.. ROI TACs of [^18F]FEt-AMC13 were analyzed with one-tissue and two-tissue compartmental models of reversible binding (1TCM and 2TCM, respectively) to obtain individual rate constants. From these, the regional distribution volumes (VT) were calculated and compared to those obtained with Logan graphical analysis. Binding potentials (BPND) were calculated from the distribution ratios as VT (target) / VT (cerebellum) – 1, or estimated with the simplified reference tissue model (SRTM) using the cerebellum as reference region.
# Metabolite-corrected plasma-derived arterial input function and whole blood time-activity curve were used for Logan, 1TCM, and 2TCM analyses. Fractional cerebral blood volume was set to 3.6 % [27]. For one rat in the raclopride-treated group, no input curves could be obtained; therefore, its PET data were only analyzed with SRTM.
# as §1
# [5] = test system: D2/3R against serotonin-1A and adrenergic α1 receptors; set-up: method as in PMID 9435894; conditions: cited from earlier work
# D2/3R [6] = assay: MicroPET study in rats; assay type: in vivo, Sprague-Dawley rats; conditions: saline pre-treated rats; peak (45 min post-injection for [^18F]FEt-AMC13 and [^11C]raclopride)
# Protocol: Animal experiments were performed by licensed investigators in compliance with the Law on Animal Experiments of The Netherlands. The protocol was approved by the Committee on Animal Ethics of the University of Groningen. Young male (10–12 weeks of age, 300–350 g body weight) Sprague-Dawley rats (Harlan, the Netherlands) were used for all experiments. The rats were maintained at a 12-h light/12-h dark regime and were fed standard laboratory chow ad libitum.
# Distribution of the radiotracers was studied in rats pre-treated, at random, with physiological saline (controls) or raclopride tartrate (1 mg/kg calculated per raclopride base, equivalent to 2.9 μmol/kg). Saline and raclopride were administered intravenously (1 mL/kg injected volume).
# An additional group of saline pre-treated rats, injected with [^11C]raclopride, served as positive controls for D2/3R-specific brain uptake.
# Two rats were scanned simultaneously. Before all manipulations, animals were anesthetized with a mixture of isoflurane/air (inhalation anesthesia, 5 % ratio during induction, 2 % at maintenance). Cannulae were placed into the rats’ left femoral arteries and veins; the operation took 45–50 min. The rats were positioned supine inside the camera (Focus 220 microPET, Siemens-Concorde), one above the other with their heads in the camera’s field of view. A 515-s transmission scan with a Co-57 point source was performed. Tracer was injected through the venous cannula as a slow bolus (1 mL volume, 60 s long) using an infusion pump. The second (upper) animal was injected 16 min after the first (lower).
# PET acquisition was started during the injection of radioactivity in the first rat. A 106-min long (76 min long in the case of [^11C]raclopride) list-mode acquisition protocol was used for the scan.
# List-mode data from the 106-min-long and 76-min-long scans were reframed into, respectively, 90-min-long and 60-min-long dynamic sequences of 6 × 10, 4 × 30, 2 × 60, 1 × 120, 1 × 180, 4 × 300, 3 × 600, and (for 90-min-long scans) 2 × 900 s frames. The data were reconstructed per time frame using an iterative reconstruction algorithm (attenuation-weighted 2-dimensional ordered-subset expectation maximization, provided by Siemens; 4 iterations, 16 subsets; zoom factor 2). Datasets were fully corrected for random coincidences, scatter, and attenuation. Data from the transmission scan were used for attenuation correction. The final datasets consisted of 95 slices, with a slice thickness of 0.8 mm and an in-plane image matrix size of 128 × 128 and pixel size of 0.47 × 0.47 mm.
# Reconstructed images were analyzed with Inveon 2.0 software (Siemens Medical Solutions, USA, Inc). Regions of interest (ROIs) were drawn manually on a T2-weighted MRI template of rat brain around the striatum, brainstem, cortex, hippocampus, hypothalamus, thalamus, olfactory bulbs, and cerebellum around the whole brain and around the pituitary gland. The MRI template was co-registered with the PET scan by image fusion. The time-activity curves (TAC) per ROI were determined in Bq/cm^3 units and converted into standardized uptake values (SUVs).
# as §1
logD [3],SMILES,"Striatal SBR % change relative to control condition, Raclopride (D2/3R [2]) [%]","Striatal SBR, Raclopride (D2/3R [2])","Striatal SBR % change relative to control condition, GTP (D2/3R [2]) [%]","Striatal SBR, GTP (D2/3R [2])",further results
,CC[11CH2]N1CCO[C@@H]2c3cc(O)ccc3CCC21 (stereo partly shown) [[^11C]PHNO],,,,,displacement of apparent D2/3R-specific uptake (D2/3R [1]; 0.2 mg/kg (0.58 μmol/kg) raclopride): over 80%; displacement of apparent D2/3R-specific striatal uptake (D2/3R [1]): > 90%
,CCCN(CCC[18F])C1CCc2c(O)cccc2C1 (stereo not shown) [[^18F]5-OH-FPPAT],,,,,striatum-to-cerebellum ratio (D2/3R [1]; rats): 2
2.39 ± 0.001,Oc1ccc2c(c1)O[C@@H](CNCCN1CCN(c3ccc(OCCC[18F])cc3)CC1)CC2 [[^18F]FPr-AMC15],−61,0.39 ± 0.22,−63,0.37 ± 0.24,
,"CCN1CCC[C@H]1CNC(=O)c1c(O)c(Cl)cc(Cl)c1OC [raclopride, reference compound]",,,,,raclopride-induced D2/3R occupancy (modified Lassen plot) (D2/3R [4]): 20–25%
,CCCN1CCc2cc(O[11CH3])cc3c2C1Cc1ccc(O)c(O)c1-3 (stereo not shown) [[^11C]MNPA],,,,,displacement of apparent D2/3R-specific striatal uptake (D2/3R [1]): > 90%
1.98 ± 0.08,Oc1ccc2c(c1)O[C@@H](CNCc1ccc(OCCC[18F])cc1)CC2 [[^18F]FPr-AMC13],−80,0.41 ± 0.23,−80,0.42 ± 0.23,
,Oc1ccc2c(c1)O[C@@H](CNCc1ccccc1)CC2 [(R)-2-[(benzylamino)methyl]chroman-7-ol],,,,,selectivity [5]: selective for D2/3R against serotonin-1A and adrenergic α1 receptors
2.71 ± 0.07,Oc1ccc2c(c1)O[C@@H](CNCCN1CCN(c3ccc(OCCCC[18F])cc3)CC1)CC2 [[^18F]FBu-AMC15],−64,0.25 ± 0.23,−67,0.23 ± 0.23,
,"CCN1CCC[C@H]1CNC(=O)c1c(O)c(Cl)cc(Cl)c1O[11CH3] (racemic) [[^11C]raclopride, reference compound]",,,,,Striatum-to-cerebellum uptake ratio (PET) (D2/3R [6]): 7.45 ± 1.60
